From patent US4207325A, “4-Substituted pyrazoles” (Bayer Aktiengesellschaft, priority 1975, dated 1980)

Tested on: venous thrombs (left jugular vein of rats)
Experiment: antithrombotic action in rats: thromb formation in the supercooled left jugular vein, thromb isolated and weighed 4 hours later
Assay type: in vivo
Conditions: 10 mg/kg, administered orally
Description: The left jugular vein of rats weighing 170 to 180 g was exposed under ether narcosis and supercooled to -12° C. for 2 minutes to stimulate thromb formation. The thromb was isolated from the vein 4 hours later, and was weighed. The test animals were given the test preparation in tragacanth mucilage immediately before supercooling the wall of the blood vessel. As a result, the protective antithrombotic activity was tested in the first 4 hours after stimulating thromb formation.

SMILES: Cc1nn(C(C)c2ccc(Cl)c(Cl)c2)c(OC(=O)c2ccc(F)cc2)c1-c1ccccc1 (stereo not drawn) [Example 1, 5-(4-Fluorobenzoyloxy)-3-methyl-phenyl-1-(α-methyl-3,4-dichlorobenzyl)-pyrazole]
- Inhibition in % (reduction of thromb size) (4 hour period of action, vs control without active compound): 56%
- Thromb size, mean value (4 hours, 12 experiments, control 115 ± 12 (14 experiments)): 51 ± 10 µg
